Measured values published in US9815854B2, “3-(3H-imidazo[4,5-B]pyridin-2-yl)-1H-pyrazolo[3,4-C]pyridine and therapeutic uses thereof” (Samumed, LLC, priority 2014, dated 2017).

Columns and labels:
[1] = test system: Wnt activity (Sp5-Luc reporter, TCF/LEF binding sites) in SW480 colon carcinoma cells; experiment: Sp5-Luc Wnt reporter gene screening assay in SW480 colon carcinoma cells; type: cell-based, human; conditions: Homo sapiens
Excerpt: The screening assay for Wnt activity is described as follows. Reporter cell lines can be generated by stably transducing cancer cell lines (e.g., colon cancer) or primary cells (e.g., IEC-6 intestinal cells) with a lentiviral construct that includes a Wnt-responsive promoter driving expression of the firefly luciferase gene.
SW480 colon carcinoma cells were transduced with a lentiviral vector expressing luciferase with a human Sp5 promoter consisting of a sequence of eight TCF/LEF binding sites. SW480 cells stably expressing the Sp5-Luc reporter gene and a hygromycin resistance gene were selected by treatment with 150 μg/ml of hygroinycin for 7 days. These stably transduced SW480 cells were expanded in cell culture and used for all further screening activities. For Sp5-Luc reporter gene assays, the cells were plated at 10,000 cells/well in 96-well plates with growth medium containing 10% fetal calf serum and incubated overnight at 37° C. and 5% CO2. Each compound was dissolved in DMSO as a 10 mM stock in standard j-vials and used to prepare compound source plates in dose-response format with 3-fold serial dilutions and a 10 mM top concentration. Compound transfer from serially diluted source plates to assay plates containing the cells was accomplished using a pintool (Multimek 96, Beckman equipped with V&P Scientific FP1S50H pins) based liquid handling protocol. This protocol used a slotted pin to transfer 50 nl of compound from a source plate well to an assay plate well containing 50 μl of cells in growth medium. […] Control wells received 50 nl of DMSO treatment for nommlization and calculating IC50 values. The treated cells were incubated at 37° C. and 5% CO2 for an additional forty-two hours. Following incubation, the growth medium was removed and 50 μl of BrightGlo luminescence reagent (Promega) was added to each well of the 96-well assay plates. The plates were placed on an orbital shaker for 5 min and then luminescence was quantified on the Victor3 (Perkin Elmer) plate reader. Readings were normalized to DMSO only treated cells, and normalized activities were utilized for IC50 calculations using the dose-response log (inhibitor) vs. response—variable slope (four parameters) nonlinear regression feature available in GraphPad Prism 5.0 or 6.0.

[2] = test system: primary human fibroblasts derived from IPF patients (LL29 cells); experiment: Inhibition of the fibrotic process in TGF-β1-treated primary human fibroblasts from IPF patients (αSMA staining); type: cell-based; conditions: Fibroblast, 96 h, TGF-β1 20 ng/mL, 4 days, read-out: Inhibition of fibrosis EC50
Excerpt: The above synthesized compounds were screened using primary human fibroblasts (derived from IPF patients) treated with TGF-β1 to determine their ability to inhibit the fibrotic process.
Human Fibroblast Celt Culture: Primary human fibroblasts derived from IPF patients (LL29 cells) [^1Xiaoqiu Liu, et.al., “Fibrotic Luna Fibroblasts Show Blunted Inhibition by cAMP Due to Deficient cAMP Response Element-Binding Protein Phosphorylation”, Journal of Pharmacology and Experimental Therapeutics (2005), 315(2), 678-687; ^2Watts, K. L., et.al., “RhoA signaling modulates cyclin D1 expression in human lung fibroblasts; implications for idiopathic pulmonary fibrosis”, Respiratory Research (2006), 7(1), 88] were obtained from American Type Culture Collection (ATCC) and expanded in F12 medium supplemented with 15% Fetal Bovine Serum and Penicillin/Streptomycin.
Compound Screening: Each compound was dissolved in DMSO as a 10 mM stock and used to prepare compound source plates. Serial dilution (1:2, 11-point dose-response curves from 10 μM to […]) and compound transfer was performed using the ECHO 550 (Lahcyte, Sunnyvale, Calif.) into 384-well clear bottom assay plates (Greiner Bio-One) with appropriate DMSO backfill fhr a final DMSO concentration of 0.1%. LL29 cells were plated at 1,500 cells/well in 80 μl/well F12 medium supplemented with 1% Fetal Bovine Serum. One hour after addition of the cells. TGF-β1 (Peprotech; 20 ng/mL) was added to the plates to induce fibrosis (ref. 1 and 2 above), Wells treated with TGF-β1 and containing DMSO were used as controls. Cells were incubated at 37° C. and 5% CO2 for 4 days. Following incubation for 4 days, SYTOX green nucleic acid stain (Life Technologies [Thermo Fisher Scientific]) was added to the wells at a final concentration of 1 uM and incubated at room temperature for 30 min. Cells were then fixed using 4% formaldehyde (Electron Microscopy Sciences), washed 3 times with PBS followed by blocking and penneabilization using 3% Bovine Serum Albumin (BSA; Sigma) and 0.3% Triton X-100 (Sigma) in PBS. Cells were then stained with antibody specific to α-smooth muscle actin (αSMA; Abeam) (ref 1 and 2 above) in 3% Bovine Serum Albumin (BSA; Sigma) and 0.3% Triton X-100 (Sigma) in PBS, and incubated overnight at 4° C. Cells were then washed 3 times with PBS, followed by incubation with Alexa Flor-647 conjugated secondary antibody (Life Technologies [Thermo Fisher Scientific]) and DAPI at room temperature for 1 hour, Cells were then washed 3 times with PBS and plates were sealed for imaging. αSMA staining was imaged by excitation at 630 nm and emission at 665 nm and quantified using the Compartmental Analysis program on the CellInsight CX5 (Thermo Scientific). Dead or apoptotic cells were excluded from analysis based on positive SYTOX green staining. % of total cells positive for αSMA were counted in each well and normalized to the average of 11 wells treated with TGF-β1 on the same plate using Dotmatics' Studies Software. The normalized averages (fold change over untreated) of 3 replicate wells for each compound concentration were used to create dose-responses curves and EC50 values were calculated using non-linear regression curve fit in the Dotmatics' Studies Software. The EC50 values are reported.

IC50 [1] [nM]	SMILES	EC50 [2] [nM]
464	c1ccc(-c2ccnc3[nH]c(-c4n[nH]c5cnc(-c6cncc(CNCC7CCCC7)c6)cc45)nc23)nc1 [Compound 154, 1-Cyclopentyl-N-((5-(3-(7-(pyridin-2-yl)-3H-imidazo[4,5-b]pyridin-2-yl)-1H-pyrazolo[3,4-c]pyridin-5-yl)pyridin-3-yl)methyl)methanamine]	596
> 10000	CCC(=O)Nc1cncc(-c2cc3c(-c4nc5c(N6CCCCC6)ccnc5[nH]4)n[nH]c3cn2)c1 [Compound 157]	≥ 9990
84.4	CC(C)(C)C(=O)Nc1cncc(-c2cc3c(-c4nc5c(N6CCCCC6)ccnc5[nH]4)n[nH]c3cn2)c1 [Compound 164, N-(5-(3-(7-(Piperidin-1-yl)-3H-imidazo[4,5-b]pyridin-2-yl)-1H-pyrazolo[3,4-c]pyridin-5-yl)pyridin-3-yl)pivalamide]	≤ 9
253	CN(C)Cc1cncc(-c2cc3c(-c4nc5c(N6CCCCC6)ccnc5[nH]4)n[nH]c3cn2)c1 [Compound 169, N,N-Dimethyl-1-(5-(3-(7-(piperidin-1-yl)-3H-imidazo[4,5-b]pyridin-2-yl)-1H-pyrazolo[3,4-c]pyridin-5-yl)pyridin-3-yl)methanamine]	481
169	CCCC(=O)Nc1cncc(-c2cc3c(-c4nc5c(N6CCCCC6)ccnc5[nH]4)n[nH]c3cn2)c1 [Compound 173, N-(5-(3-(7-(Piperidin-1-yl)-3H-imidazo[4,5-b]pyridin-2-yl)-1H-pyrazolo[3,4-c]pyridin-5-yl)pyridin-3-yl)butyramide]	18
155	O=C(Nc1cncc(-c2cc3c(-c4nc5c(N6CCCCC6)ccnc5[nH]4)n[nH]c3cn2)c1)C1CC1 [Compound 175, N-(5-(3-(7-(Piperidin-1-yl)-3H-imidazo[4,5-b]pyridin-2-yl)-1H-pyrazolo[3,4-c]pyridin-5-yl)pyridin-3-yl)cyclopropanecarboxamide]	3930
> 10000	Cc1cn(-c2ccnc3[nH]c(-c4n[nH]c5cnc(-c6cncc(CN7CCCC7)c6)cc45)nc23)cn1 [Compound 196]	≥ 9990
1040	CN1CCN(c2ccnc3[nH]c(-c4n[nH]c5cnc(-c6cncc(N)c6)cc45)nc23)CC1 [Compound 211, 5-(3-(7-(4-Methylpiperazin-1)-3H-imidazo[4,5-b]pyridin-2-yl)-1H-pyrazolo[3,4-c]pyridin-5-yl)pyridin-3-amine]	≥ 9990
> 10000	CC(C)C(=O)Nc1cncc(-c2cc3c(-c4nc5c(N6CCN(C)CC6)ccnc5[nH]4)n[nH]c3cn2)c1 [Compound 217, N-(5-(3-(7-(4-Methylpiperazin-1-yl)-3H-imidazo[4,5-b]pyridin-2-yl)1H-pyrazolo[3,4-c]pyridin-5-yl)pyridin-3-yl)isobutyramide]	≥ 9990
5080	CN1CCN(c2ccnc3[nH]c(-c4n[nH]c5cnc(-c6cncc(CN7CCCCC7)c6)cc45)nc23)CC1 [Compound 223, 3-(7-(4-Methylpiperazin-1-yl)-3H-imidazo[4,5-b]pyridin-2-yl)-5-(5-(piperidin-1-ylmethyl)pyridin-3-yl)-1H-pyrazolo[3,4-c]pyridine]	≤ 9
> 10000	CN1CCN(c2ccnc3[nH]c(-c4n[nH]c5cnc(-c6cncc(NC(=O)C7CCCC7)c6)cc45)nc23)CC1 [Compound 229, N-(5-(3-(7-(4-Methylpiperazin-1-yl)-3H-imidazo[4,5-b]pyridin-2-yl)-1H-pyrazolo[3,4-c]pyridin-5-yl)pyridin-3-yl)cyclopentanecarboxamide]	≤ 9
> 10000	CN1CCN(c2ccnc3[nH]c(-c4n[nH]c5cnc(-c6cncnc6)cc45)nc23)CC1 [Compound 234, 3-(7-(4-Methylpiperazin-1-yl)-3H-imidazo[4,5-b]pyridin-2-yl)-5-(pyrimidin-5-yl)-1H-pyrazolo[3,4-c]pyridine]	≥ 9990
> 10000	O=C(Cc1ccccc1)Nc1cncc(-c2cc3c(-c4nc5cccnc5[nH]4)n[nH]c3cn2)c1 [Compound 244, N-(5-(3-(3H-Imidazo[4,5-b]pyridin-2-yl)-1H-pyrazolo[3,4-c]pyridin-5-yl)pyridin-3-yl)-2-phenylacetamide]	992
> 10000	CC(C)(C)CC(=O)Nc1cncc(-c2cc3c(-c4nc5cccnc5[nH]4)n[nH]c3cn2)c1 [Compound 250, N-(5-(3-(3H-Imidazo[4,5-b]pyridin-2-yl)-1H-pyrazolo[3,4-c]pyridin-5-yl)pyridin-3-yl)-3,3-dimethylbutanamide]	≥ 9990
796	O=C(Nc1cncc(-c2cc3c(-c4nc5cccnc5[nH]4)n[nH]c3cn2)c1)C1CCCCC1 [Compound 256, N-(5-(3-(3H-Imidazo[4,5-b]pyridin-2-yl)-1H-pyrazolo[3,4-c]pyridin-5-yl)pyridin-3-yl)cyclohexanecarboxamide]	≥ 9990
26.1	Cc1ccncc1-c1cc2c(-c3nc4c(-c5ccsc5)ccnc4[nH]3)n[nH]c2cn1 [Compound 265, 5-(4-Methylpyridin-3-yl)-3-(7-(thiophen-3-yl)-3H-imidazo[4,5-b]pyridin-2-yl)-1H-pyrazolo[3,4-c]pyridine]	34
16.6	O=C(Nc1cncc(-c2cc3c(-c4nc5c(-c6ccsc6)ccnc5[nH]4)n[nH]c3cn2)c1)c1ccccc1 [Compound 271, N-(5-(3-(7-(Thiophen-3-yl)-3H-imidazo[4,5-b]pyridin-2-yl)-1H-pyrazolo[3,4-c]pyridin-5-yl)pyridin-3-yl)benzarnide]	51
24.9	CCCC(=O)Nc1cncc(-c2cc3c(-c4nc5c(-c6ccsc6)ccnc5[nH]4)n[nH]c3cn2)c1 [Compound 277, N-(5-(3-(7-(Thiophen-3-yl)-3H-imidazo[4,5-b]pyridin-2-yl) 1H-pyrazolo[3,4-c]pyridin-5-yl)pyridin-3-yl)butyramide]	158
74.7	c1ccc(CNCc2cncc(-c3cc4c(-c5nc6c(-c7ccsc7)ccnc6[nH]5)n[nH]c4cn3)c2)cc1 [Compound 283, N-benzyl-1-(5-(3-(7-(thiophen-3-yl)-3H-imidazo[4,5-b]pyridin-2-yl)-1H-pyrazolopyridin-5-yl)pyridin-3-yl) methenamine]	> 10000
46.8	CC(C)Nc1cncc(-c2cc3c(-c4nc5c(-c6ccoc6)ccnc5[nH]4)n[nH]c3cn2)c1 [Compound 298, 5-(3-(7-(Furan-3-yl)-3H-imidazo[4,5-b]pyridin-2-yl)-1H-pyrazolo[3,4-c]pyridin-5-yl)-N-isopropylpyridin-3-amine]	472
